{"source": "patent US20140051714A1", "about": "“Modulators Of The GPR119 Receptor And The Treatment Of Disorders Related Thereto” (ARENA PHARMACEUTICALS, INC., priority 2011, published 2014)", "key": {"Male ZDF rats": {"system": "Male ZDF rats", "assay": "Oral glucose tolerance test (oGTT) in male ZDF rats", "type": "in vivo", "settings": "for % Inhibition of Glucose Excursion: 60 min prior to glucose bolus (3 g/kg), AUC relative to vehicle control", "description": "Male ZDF rats were fasted for 18 h and randomly grouped (n=6) to receive the GPR119 agonist Compound 1 at 3, 10, or 30 mg/kg, the control compound Januvia (3 mg/kg), or a combination of Compound 1 (3 mg/kg) and Januvia (3 mg/kg). The compounds were delivered orally via a gavage needle (p.o., volume 4 mL/kg) 60 min prior to glucose bolus (3 g/kg) (time=−60 min in FIG. 4), with a separate group receiving vehicle (20% hydroxypropyl-beta-cyclodextrin (HPCD)) as control. At time 0 min. a glucose bolus was administered. Levels of blood glucose were assessed using a glucometer (One-Touch Ultra™, LifeScan) at time −60 min (prior to compound administration), at 0 min (at time when glucose bolus was given), and at 30, 60, 90, and 120 min post glucose bolus. The plasma glucose excursion curve (FIG. 4) is shown."}, "Male SD rats": {"system": "Male SD rats", "assay": "Gastric emptying in male SD rats (stomach content 6 h post-dosing)", "type": "in vivo", "settings": "3, 10, or 30 mg/kg orally", "description": "Male SD rats were fasted for 18 h and randomly grouped (n=5). Fasted rats were allowed to access food for 30 min, and the amount of food consumed was recorded for each rat. At the end of the 30 min food intake, rats were put in cages without food and water, and dosed with Compound 1 at 3, 10, or 30 mg/kg, or vehicle control (20% HPCD) orally, or with exendin-4 (Ex-4) at 100 μg/kg i.p. Six hours post-dosing, rats were euthanized with CO2, and stomach content was determined."}, "GPR119 receptor": {"target": "T1, GPR119 receptor (Homo sapiens, UniProt Q8TDV5)", "T1 construct": "expressed in transfected cells", "T1 sequence (Q8TDV5 2-335)": "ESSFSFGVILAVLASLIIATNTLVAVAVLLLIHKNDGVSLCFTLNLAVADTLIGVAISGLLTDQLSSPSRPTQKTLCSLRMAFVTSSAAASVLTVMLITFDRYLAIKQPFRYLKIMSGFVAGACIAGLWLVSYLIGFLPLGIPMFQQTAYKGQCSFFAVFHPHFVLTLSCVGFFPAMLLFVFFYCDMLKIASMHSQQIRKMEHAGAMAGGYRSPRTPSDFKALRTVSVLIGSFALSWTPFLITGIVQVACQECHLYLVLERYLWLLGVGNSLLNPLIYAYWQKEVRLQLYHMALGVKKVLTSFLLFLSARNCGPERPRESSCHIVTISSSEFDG", "assay": "HTRF cAMP detection assay in CHO-K1 cells stably expressing the GPR119 receptor", "type": "cell-based", "description": "GPR119 agonist, Compound 1, was evaluated in an HTRF® cAMP detection assay (Cisbio, cAMP Dynamic 2 Assay Kit; #62AM4PEJ) according to the manufacturer's instructions using CHO-K1 cells stably expressing the GPR119 receptor. CHO-K1 cells were transduced with a lentiviral vector encoding the nucleotide sequence of GPR119 (NCBI mRNA and protein reference sequences: NM_178471.2 & NP_848566). The N-terminus of the GPR119 nucleotide sequence was modified to replace the first, methionine-coding, codon with a nucleotide sequence coding for a standard, nine amino acid, hemagglutinin tag. Following transduction, cells expressing the GPR119 receptor were isolated and a single clone was isolated following standard dilution-cloning procedures. On the day of the assay, cultured CHO-GPR119 cells were harvested, suspended in assay buffer and plated into 384-well assay plates (PerkinElmer® Proxiplate® #6008280) at a density of 2,000 cells per well. A cAMP standard curve was added to each plate. Compound 1 was dissolved in DMSO, serially diluted in DMSO and then diluted in assay buffer before addition to the cells. Compound 1 was evaluated in triplicate, using 10-point, 5-fold serial dilutions starting at 10 μM. […] Plates were then incubated at room temperature for 1 h prior to reading. Time-resolved fluorescence measurements were collected on PerkinElmer Envision™ or BMG Pherastar™ microplate readers. […]"}, "Male 129SVE mice [1]": {"system": "Male 129SVE mice", "assay": "Oral glucose tolerance test (oGTT) in male 129SVE mice", "type": "in vivo", "settings": "for Plasma Glucose, Mean: n=6", "description": "Male 129SVE mice (approximately 8 weeks old) were fasted for 18 h and randomly grouped (n=6) to receive a GPR119 agonist (Compound 1) at 3, 10, or 30 mg/kg body weight. The compound was delivered orally via a gavage needle (4 mL/kg) 30 min prior to glucose bolus (3 g/kg) (time=−30 min in FIG. 1), with a separate control group receiving vehicle (20% hydroxypropyl-beta-cyclodextrin (HPCD). At time 0 min, the glucose bolus was administered. Levels of blood glucose were assessed using a glucometer (One-Touch Ultra™, LifeScan) at time −30 min (prior to compound administration), at 0 min (at time when glucose bolus was given), and at 20, 40, 60, 120 min post glucose bolus. The plasma glucose level (Table A) and glucose excursion curve (FIG. 1) are shown. Glucose excursion reduction (area under the curve (AUC)) in compound treated animals relative to vehicle control is given in FIG. 2."}, "Male 129SVE mice [2]": {"system": "Male 129SVE mice", "assay": "GIP release in male 129SVE mice (plasma total GIP, ELISA)", "type": "in vivo", "settings": "3 or 30 mg/kg p.o.; blood sample after 45 min", "description": "Male 129SVE mice (approximately 8 weeks old) were fasted for 18 h and randomly grouped (n=6) to receive a GPR119 agonist (Compound 1) at 3 or 30 mg/kg body weight. Compound 1 was delivered orally via a gavage needle (4 mL/kg), and after 45 min a blood sample was collected to determine plasma total GIP levels. A separate control group received vehicle (PET (80% PEG: 10% Ethanol: 10% Tween80™)). Plasma GIP levels were determined using a GIP (total) ELISA kit from Millipore."}}, "data": [{"smiles": "N[C@@H](CC(=O)N1CCn2c(nnc2C(F)(F)F)C1)Cc1cc(F)c(F)cc1F", "note": "[Januvia, 3(R)-amino-1-[3-(trifluoromethyl)-5,6,7,8-tetrahydro[1,2,4]triazolo[4,3-a]pyrazin-7-yl]-4-(2,4,5-trifluorophenyl)butan-1-one phosphate, reference compound]", "values": [{"measurement": "% Inhibition of Glucose Excursion", "setting": "Male ZDF rats; 3 mg/kg p.o.", "value": 54.2, "unit": "%"}]}, {"smiles": "CCc1cnc(N2CCC(Oc3ncnc(Oc4ccc(S(C)(=O)=O)nc4C)c3F)CC2)nc1", "note": "[Compound 1, 4-(1-(5-ethylpyrimidin-2-yl)piperidin-4-yloxy)-5-fluoro-6-(2-methyl-6-(methylsulfonyl)pyridin-3-yloxy)pyrimidine]", "values": [{"measurement": "Effect on gastric emptying", "setting": "Male SD rats", "value": "no significant effect on gastric emptying"}, {"measurement": "Agonist character at GPR119 (HTRF assay)", "setting": "GPR119 receptor", "value": "full agonist"}, {"measurement": "Plasma Glucose, Mean", "setting": "Male 129SVE mice [1]; 3 mg/kg p.o., 20 min post glucose bolus", "value": 282.8333, "unit": "mg/dL"}, {"measurement": "Plasma Glucose, Mean", "setting": "Male 129SVE mice [1]; 3 mg/kg p.o., 40 min post glucose bolus", "value": 301.6667, "unit": "mg/dL"}, {"measurement": "Plasma Glucose, Mean", "setting": "Male 129SVE mice [1]; 3 mg/kg p.o., 60 min post glucose bolus", "value": 270.6667, "unit": "mg/dL"}, {"measurement": "Plasma Glucose, Mean", "setting": "Male 129SVE mice [1]; 3 mg/kg p.o., 120 min post glucose bolus", "value": 151.3333, "unit": "mg/dL"}, {"measurement": "Plasma Glucose, Mean", "setting": "Male 129SVE mice [1]; 3 mg/kg p.o., time 0 min relative to glucose bolus (3 g/kg)", "value": 83.83, "unit": "mg/dL"}, {"measurement": "Plasma Glucose, Mean", "setting": "Male 129SVE mice [1]; 3 mg/kg p.o., time −30 min relative to glucose bolus (prior to compound administration)", "value": 75, "unit": "mg/dL"}, {"measurement": "Plasma Glucose, Mean", "setting": "Male 129SVE mice [1]; 10 mg/kg p.o., 20 min post glucose bolus", "value": 254.3333, "unit": "mg/dL"}, {"measurement": "Plasma Glucose, Mean", "setting": "Male 129SVE mice [1]; 10 mg/kg p.o., 40 min post glucose bolus", "value": 276.8333, "unit": "mg/dL"}, {"measurement": "Plasma Glucose, Mean", "setting": "Male 129SVE mice [1]; 10 mg/kg p.o., 60 min post glucose bolus", "value": 197.8333, "unit": "mg/dL"}, {"measurement": "Plasma Glucose, Mean", "setting": "Male 129SVE mice [1]; 10 mg/kg p.o., 120 min post glucose bolus", "value": 134, "unit": "mg/dL"}, {"measurement": "Plasma Glucose, Mean", "setting": "Male 129SVE mice [1]; 10 mg/kg p.o., time 0 min relative to glucose bolus (3 g/kg)", "value": 95.67, "unit": "mg/dL"}, {"measurement": "Plasma Glucose, Mean", "setting": "Male 129SVE mice [1]; 10 mg/kg p.o., time −30 min relative to glucose bolus (prior to compound administration)", "value": 75.67, "unit": "mg/dL"}, {"measurement": "Effect on blood glucose after challenge with glucose", "setting": "Male 129SVE mice [1]; 3, 10, or 30 mg/kg p.o., 30 min prior to glucose bolus (3 g/kg)", "value": "lowered blood glucose"}, {"measurement": "Effect on plasma glucose levels in oGTT", "setting": "Male 129SVE mice [1]; dose of 10 mg/kg", "value": "significantly reduced plasma glucose levels"}, {"measurement": "% Inhibition of Glucose Excursion", "setting": "Male ZDF rats; 3 mg/kg p.o.", "value": 19.1, "unit": "%"}, {"measurement": "% Inhibition of Glucose Excursion", "setting": "Male ZDF rats; 10 mg/kg p.o.", "value": 30.2, "unit": "%"}, {"measurement": "% Inhibition of Glucose Excursion", "setting": "Male ZDF rats; 30 mg/kg p.o.", "value": 60.7, "unit": "%"}, {"measurement": "Effect on blood glucose after a challenge with glucose", "setting": "Male ZDF rats; diabetic ZDF rats, 3, 10, or 30 mg/kg p.o.", "value": "lowered blood glucose"}, {"measurement": "Effect on GIP release (plasma total GIP)", "setting": "Male 129SVE mice [2]", "value": "stimulates the release of GIP"}]}]}
